SMILES strings stand for the structures. Where two headings read alike, the source gives them in different places.

The target in one test is hROMK (hKir1.1) (Homo sapiens (Human), UniProt P48048). The experiment in a line: Thallium Flux Assay (ROMK channel functional thallium flux, FLIPR-Tetra). Format: cell-based. Particulars: HEK293 cells stably expressing hROMK (hKir1.1); read-out: Thallium Flux IC50. The procedure, abridged: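 HEK293 cells stably expressing hROMK loaded with FluxOR dye for 90 min, then incubated with compound for 30 min at 23-25 °C. Normalized to a 3 μM standard ROMK inhibitor as % fluorescence change.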
hROMK (hKir1.1), sequence (P48048 whole entry): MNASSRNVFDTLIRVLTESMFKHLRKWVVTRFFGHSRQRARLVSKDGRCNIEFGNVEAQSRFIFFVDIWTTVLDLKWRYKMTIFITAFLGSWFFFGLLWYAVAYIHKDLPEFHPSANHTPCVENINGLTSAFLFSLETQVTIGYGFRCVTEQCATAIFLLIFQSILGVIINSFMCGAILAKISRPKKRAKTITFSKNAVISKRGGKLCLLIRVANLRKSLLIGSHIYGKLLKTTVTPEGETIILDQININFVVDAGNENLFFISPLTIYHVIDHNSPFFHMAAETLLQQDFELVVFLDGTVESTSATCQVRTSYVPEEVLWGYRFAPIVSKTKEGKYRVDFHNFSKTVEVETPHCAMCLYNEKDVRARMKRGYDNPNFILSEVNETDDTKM

Another test concerns the target Kir1.1 (ROMK1) (Homo sapiens (Human), UniProt P48048). The experiment in a line: Electrophysiology Assay (whole cell voltage clamp, IonWorks Quattro). Format: cell-based. The conditions noted are these: block during voltage step to 0 mV. Put shortly:
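CHO cells stably expressing the channel, induced overnight with 1 mM sodium butyrate, were recorded in amphotericin-perforated patch mode. The test pulse was a 100 ms step to 0 mV from −70 mV, then a −70 to +70 mV ramp, applied before and after a 6 min compound incubation. Current amplitudes were compared.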

[1] abbreviates: Electrophysiology IC50, Chinese hamster ovary cells stably expressing Kir1.1.
The mark [2] stands for this setting: Chinese hamster ovary cells stably expressing Kir1.1, read-out: Electrophysiology IC50.

Kir1.1 (ROMK1), sequence (P48048 whole entry): as above

For `O=C1OCc2c1ccc([C@@H]1CN3CCN(C(=O)Cc4ccc(-n5cnnn5)cc4)C[C@H]3CO1)c2Cl` [Example 20, 4-chloro-5-[(3R,9aS)-8-{[4-(1H-tetrazol-1-yl)phenyl]acetyl}octahydropyrazino[2,1-c][1,4]oxazin-3-yl]-2-benzofuran-1(3H)-one], the IC50 at hROMK (hKir1.1) amounted to 0.58 µM; against Kir1.1 (ROMK1) (setting [1]) it was 0.06 µM.

For `O=C1OCCc2cc([C@@H]3CN4CCN(C(=O)C5CCCc6cc(-n7cnnn7)ccc65)C[C@H]4CO3)ccc21` (single isomer, unassigned) [Example 90], the IC50 amounted to 0.43 µM at hROMK (hKir1.1) and 0.26 µM on Kir1.1 (ROMK1) (setting [2]).

As to `Cc1c([C@H]2CN3CCN(C(=O)Cc4ccc(-n5cnnn5)cc4)C[C@H]3CO2)ccc2nonc12` [Example 75, (3S,9aS)-3-(4-methyl-2,1,3-benzoxadiazol-5-yl)-8-{[4-(1H-tetrazol-1-yl)phenyl]acetyl}octahydropyrazino[2,1-c][1,4]oxazine], the IC50 was determined as 0.21 µM at hROMK (hKir1.1) and 0.12 µM on Kir1.1 (ROMK1) (setting [2]).

Consider `Cc1c([C@H]2CN3CCN(C(=O)C4CCc5cc(-n6cnnn6)ccc54)C[C@H]3CO2)ccc2c1COC2=O` (single isomer, unassigned) [Example 81], for which the half-maximal inhibitory concentration (IC50) is 0.23 µM on hROMK (hKir1.1) and 0.26 µM at Kir1.1 (ROMK1) (setting [2]).

With `Cc1c([C@@H]2CN3CCN(C(=O)C4CCCc5cc(-n6cnnn6)ccc54)C[C@H]3CO2)ccc2c1COC2=O` (single isomer, unassigned) [Example 89], the results for the IC50 on hROMK (hKir1.1) and on Kir1.1 (ROMK1) (setting [2]) were 0.49 µM and 0.46 µM, respectively.

Turning to `COc1cc(F)c([C@@H]2CN3CCN(C(=O)Cc4ccc(-n5cnnn5)cc4)C[C@H]3CO2)cc1C#N` [Example 27, 4-fluoro-2-methoxy-5-[(3R,9aS)-8-{[4-(1H-tetrazol-1-yl)phenyl]acetyl}octahydropyrazino[2,1-c][1,4]oxazin-3-yl]benzonitrile], the 50% inhibitory concentration (IC50) came to 0.18 µM at hROMK (hKir1.1) and 0.39 µM against Kir1.1 (ROMK1) (setting [1]).

Take `Cc1cc(F)c(C#N)cc1[C@@H]1CN2CCN(C(=O)Cc3ccc(-n4cnnn4)cc3)C[C@H]2CO1` [Example 38, 2-fluoro-4-methyl-5-[(3R,9aS)-8-{[4-(1H-tetrazol-1-yl)phenyl]acetyl}octahydropyrazino[2,1-c][1,4]oxazin-3-yl]benzonitrile]: the IC50 at hROMK (hKir1.1) came out at 0.11 µM; at Kir1.1 (ROMK1) (setting [2]), 0.18 µM.

These data come from patent US9573961B2, “Inhibitors of the renal outer medullary potassium channel” (Merck Sharp & Dohme Corp., priority 2012, dated 2017).
